Experimental data: PubChem BioAssay (NCI)
Values joined by “and” are separate entries in the source; they are usually repeats but may differ in a detail not shown here. Identical values can stand only once.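 Grown in 96-well plates, cells were treated for 48 hours with each compound at five concentrations. Insufficient inhibition: endpoint recorded as highest concentration tested. At the GI50, growth is halved. The concentration for full growth arrest is given as TGI.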

Tests used:
Assay in all cases: NCI anticancer screen, dose series, 48 h
[1] = test system: MDA-N
[2] = test system: DMS 273 small cell lung
[3] = test system: XF 498 CNS
[4] = test system: LXFL 529 NSCLC
[5] = test system: DMS 114 small cell lung
[6] = test system: M19-MEL melanoma
[7] = test system: SNB-78 CNS
[8] = test system: HOP-18 NSCLC
[9] = test system: RXF-631 renal

SMILES	TGI [1]	TGI [2] [µM]	TGI [3] [µM]	TGI [4] [µM]	TGI [5] [µM]	TGI [6] [µM]	TGI [7] [µM]	TGI [8] [µM]	other results
OC1(c2ccccc2)C2CC=CC2C1(c1ccccc1)c1ccccc1 (configuration not stated)	> 100 µM	–	–	–	–	–	–	–	–
C=CO/N=[N+](\[O-])N(CC)CC	> 100 µM	–	–	–	–	–	–	–	–
C=C1CC(CC)(CCN2C(=O)c3ccccc3C2=O)OC1=O (configuration not stated)	–	24.6	27.1	27.1	43	–	–	–	–
Cn1cnc(N)c(N=O)c1=O	> 10 µM	–	–	–	–	–	–	–	–
CC(C)N(C(=O)c1cccc(C(=O)N(C(C)C)C(C)C)c1)C(C)C	–	> 100	> 100	> 100	> 100	> 100	> 100	> 100	TGI [9]: > 100 µM
COC(=O)CCC(NC(=S)N/N=C(\C)c1ccc[nH]1)C(=O)OC (configuration not stated)	–	> 100	> 100	> 100	> 100	> 100	> 100	> 100	–
Cc1cc(N(CCC#N)S(=O)(=O)c2ccccc2)ccc1/C=C1\N=C(c2ccc(Cl)cc2)OC1=O	–	> 100	> 100	> 100	> 100	–	> 100	–	–
CCOC(=O)N1C/C(=C\c2ccccc2)C(=O)/C(=C/c2ccccc2)C1	3.62 µM	6.44	26.6	12.4	14.5	3.22	> 81.2	> 67.5	–
CCO/C=C1\N=C(c2ccc(Cl)c(Cl)c2)OC1=O	–	> 100	> 100	> 100	> 100	> 100	> 100	–	–
CC(C)C1CO[C@]2(C)CCC(=O)N12 (some centres not stated)	–	–	> 100	> 100	> 100	> 100	–	> 100	TGI [9]: > 100 µM
C#CC1(O)CCC2C3CCc4cc(Oc5nc(F)nc(-c6c7ccccc7c7n6CCS7)n5)ccc4C3CC[C@@]21C (some centres not stated)	–	87.8	> 100	57.3	44.7	> 100	–	–	–
O=[N+]([O-])/C=C/c1c(Cl)cccc1Cl	6.85 µM	–	–	–	–	–	–	–	–
COc1cc(CNc2nc3c(N)cc(C(F)(F)F)cc3nc2-c2ccccc2)cc(OC)c1OC	–	> 100	86.2	> 100	> 100	> 100	–	> 100	GI50 [8]: > 100 µM; TGI [9]: > 100 µM
O=C1NC(N/N=C\C(O)C(O)C(O)C(O)CO)=N/C1=C/c1ccccc1 (configuration not stated)	> 100 µM and 31.6 µM	–	–	–	–	–	–	–	GI50 [1]: 89 µM and 15.7 µM and > 100 µM
C1=C(c2ccccc2)C(N2CCOCC2)Oc2ccccc21 (configuration not stated)	> 100 µM	–	–	–	–	–	–	–	–
N#CC(CCN1CCC(Nc2ccccc2)(c2nnnn2C2CCCCC2)CC1)(c1ccccc1)c1ccccc1	> 100 µM	–	–	–	–	–	–	–	–
ClC(Cl)=C(Cl)C1(Cl)CC1COCc1ccccc1 (configuration not stated)	–	> 100	73.6	> 100	59.6	73.6	60.6	–	–
N#C/C(=C/C=C/c1ccco1)C(N)=O	> 10 µM	–	–	–	–	–	–	–	–
O=c1cccccc1[O-].O=c1cccccc1[O-].O=c1cccccc1[O-].[Eu+3]	–	> 100	–	–	–	–	> 100	–	GI50 [2]: 16.9 µM; GI50 [7]: 20.1 µM

SMILES	TGI [1]	TGI [2] [µM]	TGI [3] [µM]	TGI [4] [µM]	TGI [5] [µM]	TGI [6] [µM]	TGI [7] [µM]	TGI [8] [µM]	other results
O=c1c2c([nH]c3nccn13)CCC2	> 10 µM	–	–	–	–	–	–	–	–
CCC[CH2][Sn]([CH2]CCC)([O]C(=O)c1cc(OC)c(OC)cc1OC)[O][Sn]([CH2]CCC)([CH2]CCC)[O]C(=O)c1cc(OC)c(OC)cc1OC	–	1.76	0.508	0.214	1.26	1.7	1.51	3.16	GI50 [2]: 0.762 µM; GI50 [6]: 0.347 µM; GI50 [3]: 0.196 µM; GI50 [4]: 0.0599 µM; GI50 [7]: 0.402 µM; GI50 [8]: 1.78 µM; GI50 [5]: 0.314 µM; GI50 [9]: 0.158 µM; TGI [9]: 0.365 µM
CCCn1c(SCCSc2c3ccccc3c(-c3nc(F)nc(F)n3)n2CCC)c2ccccc2c1-c1nc(F)nc(F)n1	–	> 100	–	> 100	–	–	> 100	> 100	–
COC(C)(C)[C@@H](O)[C@H](O)C[C@H](C)C1=C2CC[C@@H]3[C@@]4(C)CC[C@@H](OC(C)=O)C(C)(C)[C@@H]4C[C@@H](OC4OC(COC(C)=O)C(O)C(O)C4O)[C@@]3(C)[C@]2(C)CC1 (some centres not stated)	24.6 µM	–	–	–	–	–	–	–	GI50 [1]: 11.8 µM
CN1C(=O)c2ccc3ccccc3c2C1=O	> 100 µM	–	–	–	–	–	–	–	–
O=C(/C=C(\O)C(=O)O)/C=C(\O)c1ccccc1	–	> 100	> 100	> 100	> 100	> 100	> 100	> 100	GI50 [2]: > 1 µM; GI50 [6]: > 1 µM; GI50 [3]: > 1 µM; GI50 [4]: > 1 µM; GI50 [7]: > 1 µM; GI50 [5]: > 100 µM
O=c1[nH]c(=O)n(C2CC(O)C(CO)O2)cc1Oc1ccccc1 (configuration not stated)	> 100 µM	–	–	–	–	–	–	–	–
C=CC(=O)N1C/C(=C\c2ccc(Cl)c(Cl)c2)C(=O)/C(=C/c2ccc(Cl)c(Cl)c2)C1	–	0.315	–	0.345	0.309	0.4	0.838	1.38	TGI [9]: 1.89 µM
CN(C)Cc1ccc(-c2cc3onc(-c4ccccc4)c3c(=O)n2C)cc1	44.5 µM	–	–	–	–	–	–	–	–
O=c1cc(-c2ccccn2)[nH]c2cccc(F)c12	–	–	–	> 100	> 100	> 100	> 100	> 100	TGI [9]: > 100 µM
COc1cc2c(cc1OC)C(C(=O)O)C(c1ccccc1)N(C)C2=O (configuration not stated)	–	–	> 100	> 100	> 100	> 100	> 100	> 100	–
CCOC(=O)NC(=O)c1cn(CCN2CCN(C(=O)CNC(=O)CNC(=O)Cn3cc(C(=O)NC(=O)OCC)c(=O)[nH]c3=O)CC2)c(=O)[nH]c1=O	–	> 100	> 100	> 100	> 100	> 100	> 100	> 100	–
C[C@H]1[C@H](C)N1CC(O)Cn1ccnc1[N+](=O)[O-] (some centres not stated)	> 100 µM	–	–	–	–	–	–	–	–
C/C(CC(=O)Nc1cccc(Cl)c1C)=N\NC(N)=S	–	–	> 100	> 100	–	> 100	> 100	–	TGI [9]: > 100 µM
COC1C(OC(=O)c2ccc(C)[nH]2)C(O)C(Oc2ccc3c(O)c(NC(=O)c4c[nH]c(C(=O)Nc5c(O)c6ccc(OC7OC(C)(C)C(OC)C(OC(=O)c8ccc(C)[nH]8)C7O)c(C)c6oc5=O)c4C)c(=O)oc3c2C)OC1(C)C (configuration not stated)	–	12.2	–	8.03	6.75	–	7.37	3.37	–
CC(C)/C=C1\CCC(CN2CCOCC2)C1=O (configuration not stated)	–	–	33.4	8.24	–	> 57.2	37.4	31.8	–
N#C/C(=C1\SCC(=O)N1c1ccccc1)c1nc2ccccc2[nH]1	–	> 100	> 100	> 100	> 100	> 100	> 100	–	–
O=C(O)C(Cc1cnc[nH]1)N1C(=O)c2ccccc2C1=O (configuration not stated)	> 100 µM	–	–	–	–	–	–	–	–
COc1ccccc1N=Nc1c(-c2ccccc2)nn(C(=O)CC(=O)Nc2cccc(C)c2)c1-c1ccccc1	–	> 100	61.5	> 100	77.1	> 100	> 100	> 100	TGI [9]: > 100 µM
